Test system: seven other OR11A1-related olfactory receptors
Test: CRE-luciferase reporter assay on OR11A1 related receptors
Assay type: cell-based, human
Settings: 10/30/100 µM
Procedure: The experiments were performed using a HEK293 cell line (deposited at the ATCC under accession n° CRL-1573) stably expressing the Gαolf G-protein and the cyclic nucleotide gated ion channel A2 subunit (CNGA2) (herein called HEKOlf). As described by Shirokova et al., 2005, the human Gαolf cDNA was cloned into the mammalian expression vector pPuro and cDNA for the bovine cyclic nucleotide gated ion channel A2 (CNGA2) subunit was cloned into the mammalian expression vector pcDNA3. Both constructs were transfected using Lipofectamine2000 (Invitrogen) following the manufacturer's instructions. Cellular clones stably expressing Gαolf and CNGA2 were obtained by antibiotic selection with 0.5µg/ml Puromycin and 200µg/ml Geneticin.
All transient transfections were performed with Lipofectamine 2000 (Invitrogen) according to the manufacturer's protocol. 10µl Lipofectamine 2000 were diluted in 500 µl DMEM and incubated for 5 minutes at room temperature. At the same time, 3µg of plasmid DNA were diluted in 500µl DMEM and added to the Lipofectamine 2000 mix to obtain a final volume of 1000µl. After incubation for a further 30 minutes at room temperature, the DNA-Lipofectamine complex was added to 1000µl of a cell suspension containing 1.600.000 cells/ml. Subsequently, 25µl per well of the complete mixture were seeded in black 384 well polystyrene assay plates. 25µl DMEM containing 20% FBS were added to each well 3 hours post-transfection.
The cDNAs for all olfactory receptors and an empty control vector were co-transfected with pGL4.29 (Promega). The pGL4.29 vector contains a cyclic adenosine monophosphate (cAMP) response element (CRE) that drives the transcription of the luciferase reporter gene luc2P (Photinus pyralis). luc2P is a synthetically-derived luciferase sequence with humanized codon optimization that is designed for high expression and reduced anomalous transcription.
In this assay, the interaction of an odorant with its cognate olfactory receptor leads to the activation of the human Gαolf G-protein. Gαolf is a stimulatory G-protein (Gαs) and activates adenylate cyclase, which converts adenosine triphosphate (ATP) into cAMP. Therefore, the activity of the transcribed luciferase can be used as an indication of olfactory receptor activation. […] The cells were then transferred into an automated fluorometric imaging plate reader (FLIPR^TETRA, Molecular Devices). […]
The data obtained from different well replicates were analyzed with Excel, ScreenWorks, and SigmaPlot 10. […] The mean and standard deviation of the resulting fold of change values were calculated and plotted in vertical bar charts or concentration-response curves fitted by the SigmaPlot 10 software. […]

In the case of `C[C@H]1CC[C@@]2(O)C(C)(C)[C@@H]3CC[C@@]2(C)[C@H]1C3` [Patchouli alcohol], the fold of change (Example 3, figure 4) is reported as “around 1” and the “response of seven other OR11A1-related olfactory receptors” value (Example 3) is reported as “none of the seven other OR11A1-related olfactory receptors responded”.

— EP2832347B1, “Method for identifying patchouli odorant materials” (Takasago International Corporation, priority 2013, dated 2015)
